Laboratory results published in ChEMBL document CHEMBL1201862, “PubChem BioAssay data set” (2004).
Activity calls are given as the source filed them.

Tests used:
[1] = Luminescence Cell-Based Dose Confirmation HTS to Identify Inhibitors of Platelet Dense Granule Release. [Related pubchem assays: 1663 (Primary HTS), 1678 (Summary of Project)]; format: functional
[2] = viability loss in HEK293 cells – cell-based, plate reader, cherry-picked samples, cytotoxicity control, dose response (AID 743446); format: functional
[3] = blockade of melanocortin 4 receptor signaling – cell-based, plate reader, cherry pick, counter-screen for LGR2 antagonist project, dose response (AID 743444); format: functional;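 further: transfected HEK 293 cells stimulated with alpha-MSH peptide; potency of inhibitors of the alpha-MSH evoked signal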
[4] = target: T1, Microphthalmia-associated transcription factor (Homo sapiens, UniProt O75030); assay: reducers of TRPM1 reporter luminescence, concentration series – cell-based, SK-MEL-5, cherry-picked, set 3, MITF inhibitor project, dose response (AID 493073); format: functional;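 further: SK-MEL-5 melanoma cells with luciferase driven by the MITF target TRPM1 promoter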
T1 sequence (O75030 whole entry): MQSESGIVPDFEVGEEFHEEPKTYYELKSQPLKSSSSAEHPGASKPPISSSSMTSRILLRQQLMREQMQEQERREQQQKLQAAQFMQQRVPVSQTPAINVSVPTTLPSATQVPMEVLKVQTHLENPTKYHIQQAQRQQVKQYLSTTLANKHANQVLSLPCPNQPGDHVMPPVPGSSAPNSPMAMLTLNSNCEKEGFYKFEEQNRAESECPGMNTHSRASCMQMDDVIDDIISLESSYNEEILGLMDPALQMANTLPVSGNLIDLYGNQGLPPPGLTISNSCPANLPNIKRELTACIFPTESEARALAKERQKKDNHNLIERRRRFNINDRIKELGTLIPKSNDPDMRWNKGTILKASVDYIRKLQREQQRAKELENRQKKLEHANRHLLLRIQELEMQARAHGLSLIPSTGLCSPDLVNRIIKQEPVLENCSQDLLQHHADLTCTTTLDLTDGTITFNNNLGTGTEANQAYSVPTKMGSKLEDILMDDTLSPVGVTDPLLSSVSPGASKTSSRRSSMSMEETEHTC

[5] = target: Luciferin 4-monooxygenase (Photinus pyralis, UniProt P08659); assay: inhibition of purified Photinus pyralis luciferase – biochemical, luminescence, dose response (AID 1891)
Luciferin 4-monooxygenase, sequence (P08659 whole entry): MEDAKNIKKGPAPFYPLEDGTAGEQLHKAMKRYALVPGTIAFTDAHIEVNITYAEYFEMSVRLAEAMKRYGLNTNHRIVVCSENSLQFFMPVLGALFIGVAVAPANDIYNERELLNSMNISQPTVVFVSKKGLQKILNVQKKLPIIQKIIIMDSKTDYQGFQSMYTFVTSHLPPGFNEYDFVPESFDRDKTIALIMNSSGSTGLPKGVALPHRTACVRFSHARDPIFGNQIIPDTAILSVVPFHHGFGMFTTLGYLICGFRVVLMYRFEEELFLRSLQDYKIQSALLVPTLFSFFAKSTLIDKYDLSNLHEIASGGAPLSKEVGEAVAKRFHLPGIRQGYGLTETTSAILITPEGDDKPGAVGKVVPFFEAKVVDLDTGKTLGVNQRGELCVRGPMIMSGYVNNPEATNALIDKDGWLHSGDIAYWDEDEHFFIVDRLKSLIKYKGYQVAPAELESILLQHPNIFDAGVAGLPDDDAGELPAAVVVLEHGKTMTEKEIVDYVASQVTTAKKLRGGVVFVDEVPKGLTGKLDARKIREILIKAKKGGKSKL

[6] = blockers of bursicon-stimulated LGR2 cAMP reporter – cell-based, HEK293, CRE-luciferase reporter, cherry pick, set 2, dose response (AID 743343); format: functional;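 further: transfected cells were stimulated with diluted bursicon conditioned medium after compound addition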
BJ [7] = assay: cells; format: functional, cell-based; details: Homo sapiens
[8] = A549 cell cytotoxicity, dose response, cytotoxicity control, plate reader, cherry-pick, antagonist series (AID 743412); format: functional, cell-based
[9] = target: T2, Replicative DNA helicase DnaB (Mycobacterium tuberculosis, UniProt P9WMR3); assay: DnaB intein splicing inhibitors, dose response, biochemical, cell-free fluorescence (AID 449749); format: functional
T2 sequence (P9WMR3 whole entry): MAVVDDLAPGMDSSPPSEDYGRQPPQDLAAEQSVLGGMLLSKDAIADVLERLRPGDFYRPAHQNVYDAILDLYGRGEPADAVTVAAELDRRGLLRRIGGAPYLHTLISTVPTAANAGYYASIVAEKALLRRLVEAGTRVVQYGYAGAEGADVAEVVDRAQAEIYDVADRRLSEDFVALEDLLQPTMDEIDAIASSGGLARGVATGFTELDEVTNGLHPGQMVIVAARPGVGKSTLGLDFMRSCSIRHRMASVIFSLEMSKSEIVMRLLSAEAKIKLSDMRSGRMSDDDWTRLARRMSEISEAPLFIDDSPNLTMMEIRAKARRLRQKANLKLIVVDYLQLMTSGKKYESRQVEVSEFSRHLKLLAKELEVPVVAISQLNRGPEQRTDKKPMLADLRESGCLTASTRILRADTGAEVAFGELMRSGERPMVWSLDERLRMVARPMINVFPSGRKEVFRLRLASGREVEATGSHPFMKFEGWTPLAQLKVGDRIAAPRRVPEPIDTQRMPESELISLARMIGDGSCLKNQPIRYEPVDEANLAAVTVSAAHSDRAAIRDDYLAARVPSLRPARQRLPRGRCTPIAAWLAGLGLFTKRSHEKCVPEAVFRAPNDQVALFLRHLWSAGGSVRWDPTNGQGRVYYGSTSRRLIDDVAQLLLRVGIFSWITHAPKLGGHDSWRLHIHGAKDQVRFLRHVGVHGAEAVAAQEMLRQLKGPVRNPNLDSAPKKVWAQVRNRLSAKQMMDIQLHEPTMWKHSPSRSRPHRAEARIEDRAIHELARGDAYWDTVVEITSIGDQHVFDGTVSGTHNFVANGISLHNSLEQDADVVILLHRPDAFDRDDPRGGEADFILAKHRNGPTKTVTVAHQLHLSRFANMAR

[10] = DRD fibroblast viability loss – cell-based, non-viral oncogenic, luminescence, dose response (AID 1934); format: functional; details: Homo sapiens
Protein RecA = target: T3, Protein RecA (Mycobacterium tuberculosis, UniProt P9WHJ3); assay: Fluorescence Cell-Free Homogeneous Dose Retest to Identify Inhibitors of RecA-Intein Splicing Activity. [Related pubchem assays (depositor defined):AID2097, AID2223, AID489010, AID492950]; format: functional
T3 sequence (P9WHJ3 whole entry): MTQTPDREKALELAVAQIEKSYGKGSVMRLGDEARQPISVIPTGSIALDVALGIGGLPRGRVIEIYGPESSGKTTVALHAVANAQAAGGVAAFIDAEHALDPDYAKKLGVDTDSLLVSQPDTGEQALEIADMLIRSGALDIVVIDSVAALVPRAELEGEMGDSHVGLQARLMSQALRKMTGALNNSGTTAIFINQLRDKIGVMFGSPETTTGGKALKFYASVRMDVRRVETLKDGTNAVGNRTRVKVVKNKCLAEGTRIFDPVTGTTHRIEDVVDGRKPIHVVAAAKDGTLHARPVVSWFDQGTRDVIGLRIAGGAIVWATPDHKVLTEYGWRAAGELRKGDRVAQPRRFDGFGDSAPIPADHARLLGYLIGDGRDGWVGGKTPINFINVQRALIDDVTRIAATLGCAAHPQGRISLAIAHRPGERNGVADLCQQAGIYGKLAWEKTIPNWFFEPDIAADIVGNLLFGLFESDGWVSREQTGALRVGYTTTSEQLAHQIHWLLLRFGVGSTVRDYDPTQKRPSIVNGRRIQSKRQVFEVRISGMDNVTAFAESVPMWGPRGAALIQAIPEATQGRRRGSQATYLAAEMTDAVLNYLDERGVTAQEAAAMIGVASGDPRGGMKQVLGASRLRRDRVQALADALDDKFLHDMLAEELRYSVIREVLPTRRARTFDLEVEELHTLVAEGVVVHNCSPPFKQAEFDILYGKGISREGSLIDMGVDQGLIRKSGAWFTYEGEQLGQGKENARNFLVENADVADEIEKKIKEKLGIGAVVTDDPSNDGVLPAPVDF

BJ [11] = assay: BJ-TERT fibroblast viability loss – cell-based, RAS-independent, luminescence, dose response (AID 1933); format: functional; details: Homo sapiens
[12] = toxicity toward HepG2 liver cells – cell-based, plate reader, cherry-pick, antagonist series, cytotoxicity control, dose response (AID 743416); format: functional
BJ [13] = assay: BJ-TERT-LT-ST fibroblast viability loss – cell-based, RAS-independent, luminescence, dose response (AID 1935); format: functional; details: Homo sapiens;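 further: BJ fibroblasts immortalized with TERT plus LT and ST oncogenes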
Cytochrome P450 1A2 = target: T4, Cytochrome P450 1A2 (Homo sapiens, UniProt P05177);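 further: PubChem cytochrome P450 panel assay, CYP1A2 panel member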
T4 sequence (P05177 whole entry): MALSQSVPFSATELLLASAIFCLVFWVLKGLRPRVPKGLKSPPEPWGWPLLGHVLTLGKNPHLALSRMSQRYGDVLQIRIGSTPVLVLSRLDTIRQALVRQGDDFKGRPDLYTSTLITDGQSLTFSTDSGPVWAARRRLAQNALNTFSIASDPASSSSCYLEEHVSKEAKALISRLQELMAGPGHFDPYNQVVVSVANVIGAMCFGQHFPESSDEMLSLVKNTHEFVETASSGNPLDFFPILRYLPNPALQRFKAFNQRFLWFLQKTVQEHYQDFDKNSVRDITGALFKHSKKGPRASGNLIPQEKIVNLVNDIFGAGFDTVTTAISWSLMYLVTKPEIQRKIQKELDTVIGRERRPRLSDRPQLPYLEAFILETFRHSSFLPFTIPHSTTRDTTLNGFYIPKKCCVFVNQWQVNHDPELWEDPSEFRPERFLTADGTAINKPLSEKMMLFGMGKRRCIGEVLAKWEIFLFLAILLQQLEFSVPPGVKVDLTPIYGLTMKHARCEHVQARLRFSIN

[14] = target: T5, Histone-lysine N-methyltransferase NSD2 (Homo sapiens, UniProt O96028); format: biochemical
T5 sequence (O96028 whole entry): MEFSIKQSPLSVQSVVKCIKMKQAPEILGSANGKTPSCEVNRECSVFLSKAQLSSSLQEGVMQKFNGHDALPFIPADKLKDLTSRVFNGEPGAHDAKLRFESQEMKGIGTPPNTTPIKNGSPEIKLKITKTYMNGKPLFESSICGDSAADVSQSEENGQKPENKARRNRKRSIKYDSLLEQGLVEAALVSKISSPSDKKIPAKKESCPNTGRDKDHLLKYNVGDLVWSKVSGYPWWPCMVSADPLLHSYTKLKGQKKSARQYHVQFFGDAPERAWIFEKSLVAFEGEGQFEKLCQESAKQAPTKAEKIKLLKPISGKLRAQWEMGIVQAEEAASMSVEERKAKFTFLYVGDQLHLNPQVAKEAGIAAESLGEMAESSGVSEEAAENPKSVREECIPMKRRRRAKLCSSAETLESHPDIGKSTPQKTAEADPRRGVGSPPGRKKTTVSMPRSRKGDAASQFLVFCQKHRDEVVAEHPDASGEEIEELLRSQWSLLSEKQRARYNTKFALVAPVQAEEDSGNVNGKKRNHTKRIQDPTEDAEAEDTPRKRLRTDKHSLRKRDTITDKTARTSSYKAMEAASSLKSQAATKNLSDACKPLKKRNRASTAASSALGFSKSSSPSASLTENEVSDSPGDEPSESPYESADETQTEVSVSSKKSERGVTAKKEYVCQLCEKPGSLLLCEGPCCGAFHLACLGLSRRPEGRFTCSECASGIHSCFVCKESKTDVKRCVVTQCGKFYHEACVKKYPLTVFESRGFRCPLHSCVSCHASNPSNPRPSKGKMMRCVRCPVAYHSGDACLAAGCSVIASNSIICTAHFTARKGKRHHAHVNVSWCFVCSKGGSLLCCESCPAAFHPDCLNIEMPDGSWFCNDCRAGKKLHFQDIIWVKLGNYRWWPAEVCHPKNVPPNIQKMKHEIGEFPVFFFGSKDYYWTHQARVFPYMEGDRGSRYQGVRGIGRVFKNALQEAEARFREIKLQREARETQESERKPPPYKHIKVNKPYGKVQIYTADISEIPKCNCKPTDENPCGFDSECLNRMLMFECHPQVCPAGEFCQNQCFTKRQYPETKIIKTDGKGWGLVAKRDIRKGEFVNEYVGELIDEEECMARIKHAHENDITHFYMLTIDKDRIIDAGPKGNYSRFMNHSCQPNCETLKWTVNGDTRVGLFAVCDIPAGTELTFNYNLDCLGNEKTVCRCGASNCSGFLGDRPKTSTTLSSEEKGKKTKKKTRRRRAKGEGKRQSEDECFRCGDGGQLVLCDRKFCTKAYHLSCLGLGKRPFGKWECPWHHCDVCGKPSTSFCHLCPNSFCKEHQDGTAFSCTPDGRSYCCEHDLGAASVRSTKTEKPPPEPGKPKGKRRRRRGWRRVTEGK

Caspase-6 = target: T6, Caspase-6 (Homo sapiens, UniProt P55212); assay: inhibition of CASP6 peptide cleavage – biochemical, VEID-R110 fluorescence, cherry-pick, dose response (AID 720632)
T6 sequence (P55212 whole entry): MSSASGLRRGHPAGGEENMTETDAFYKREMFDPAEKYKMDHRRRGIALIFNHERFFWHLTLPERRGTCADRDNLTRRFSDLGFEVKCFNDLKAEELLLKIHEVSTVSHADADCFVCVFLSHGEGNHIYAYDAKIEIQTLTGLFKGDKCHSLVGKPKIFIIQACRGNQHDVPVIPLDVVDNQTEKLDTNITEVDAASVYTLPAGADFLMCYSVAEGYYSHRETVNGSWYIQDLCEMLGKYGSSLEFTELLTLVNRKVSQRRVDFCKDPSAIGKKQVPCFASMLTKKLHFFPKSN

[15] = target: T7, Tyrosyl-DNA phosphodiesterase 2 (Homo sapiens, UniProt O95551); assay: potency against TDP2 phosphodiesterase activity – biochemical, epi absorbance, IC50, dose response (AID 743297)
T7 sequence (O95551 whole entry): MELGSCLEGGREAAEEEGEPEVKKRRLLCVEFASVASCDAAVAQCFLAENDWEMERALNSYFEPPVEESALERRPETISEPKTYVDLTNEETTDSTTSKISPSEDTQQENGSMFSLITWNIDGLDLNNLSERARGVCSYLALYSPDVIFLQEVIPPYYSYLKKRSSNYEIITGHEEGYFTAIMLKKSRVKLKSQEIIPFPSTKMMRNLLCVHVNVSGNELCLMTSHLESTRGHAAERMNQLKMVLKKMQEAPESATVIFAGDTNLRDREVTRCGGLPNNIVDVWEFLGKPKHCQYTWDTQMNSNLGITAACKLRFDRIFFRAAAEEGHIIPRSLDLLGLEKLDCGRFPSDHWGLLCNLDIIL

| Compound | EC50 [1] | AC50 [2] | AC50 [3] | AC50 [4] | EC50 [5] | AC50 [6] | EC50 (BJ [7]) | AC50 [8] | AC50 [9] | EC50 [10] | EC50 (Protein RecA) | EC50 (BJ [11]) | AC50 [12] | EC50 (BJ [13]) | AC50 (Cytochrome P450 1A2) | AC50 [14] | AC50 (Caspase-6) | IC50 [15] |
| --- | --- | --- | --- | --- | --- | --- | --- | --- | --- | --- | --- | --- | --- | --- | --- | --- | --- | --- |
| COc1cc(SC)ccc1C(=O)Nc1ncc(C)s1 | 11.6 µM (active) | > 52 µM (inactive) | 1.01 µM (active) | 3.65 µM (active) | 8.16 µM (active) | 1 µM (active) |  |  |  |  |  |  |  |  |  |  |  |  |
| O=[N+]([O-])c1ccc(Sc2nnnn2-c2ccccc2)nc1 |  | 12.5 µM (active) | 17.6 µM (active) |  |  | 14.9 µM (active) | 63.6 µM (inconclusive) | 18.5 µM (active) | 14.5 µM (active) | 9.86 µM (active) | 5.61 µM (active) | 6.26 µM (active) | 15.7 µM (active) | > 150 µM (inconclusive) |  |  |  |  |
| Cc1cccc(Cn2ncc(Cl)c(Cl)c2=O)c1 |  | 17.4 µM (active) |  |  |  |  |  | 30 µM (active) | 27.5 µM (active) |  | 6.04 µM (active) |  | 37.3 µM (active) |  | 22.4 µM (inconclusive) |  |  |  |
| Cc1cnc(C2OCCO2)c2cccc(N)c12 |  |  |  |  |  |  |  |  |  |  |  |  |  |  |  | 18.5 µM (active) | 26.2 µM (active) | > 129 µM (inactive) |
